Measurements: patent publication US4512986A, “Progrestationally active steroids” (priority 1983, dated 1985)
“And” between values parts separate entries of the source, which are not always exact repeats. Identical values can stand only once. “Also recorded” adds a separate entry of the source.

Experiments:
[1] = molecular target: T1, Cytosol Androgen Receptor of the Castrate Adult Rat Ventral Prostate (Rattus norvegicus, UniProt P15207); assay: Relative binding affinity for androgen receptor (competition with 3H-dihydrotestosterone); set-up: species or system rat (Charles River CD)
T1 construct: Several ventral prostate glands pooled for each assay; tissue Charles River (animals, strain CD); host or cells: ventral prostate cytosol of castrated adult male rats
T1 sequence (P15207 1-902): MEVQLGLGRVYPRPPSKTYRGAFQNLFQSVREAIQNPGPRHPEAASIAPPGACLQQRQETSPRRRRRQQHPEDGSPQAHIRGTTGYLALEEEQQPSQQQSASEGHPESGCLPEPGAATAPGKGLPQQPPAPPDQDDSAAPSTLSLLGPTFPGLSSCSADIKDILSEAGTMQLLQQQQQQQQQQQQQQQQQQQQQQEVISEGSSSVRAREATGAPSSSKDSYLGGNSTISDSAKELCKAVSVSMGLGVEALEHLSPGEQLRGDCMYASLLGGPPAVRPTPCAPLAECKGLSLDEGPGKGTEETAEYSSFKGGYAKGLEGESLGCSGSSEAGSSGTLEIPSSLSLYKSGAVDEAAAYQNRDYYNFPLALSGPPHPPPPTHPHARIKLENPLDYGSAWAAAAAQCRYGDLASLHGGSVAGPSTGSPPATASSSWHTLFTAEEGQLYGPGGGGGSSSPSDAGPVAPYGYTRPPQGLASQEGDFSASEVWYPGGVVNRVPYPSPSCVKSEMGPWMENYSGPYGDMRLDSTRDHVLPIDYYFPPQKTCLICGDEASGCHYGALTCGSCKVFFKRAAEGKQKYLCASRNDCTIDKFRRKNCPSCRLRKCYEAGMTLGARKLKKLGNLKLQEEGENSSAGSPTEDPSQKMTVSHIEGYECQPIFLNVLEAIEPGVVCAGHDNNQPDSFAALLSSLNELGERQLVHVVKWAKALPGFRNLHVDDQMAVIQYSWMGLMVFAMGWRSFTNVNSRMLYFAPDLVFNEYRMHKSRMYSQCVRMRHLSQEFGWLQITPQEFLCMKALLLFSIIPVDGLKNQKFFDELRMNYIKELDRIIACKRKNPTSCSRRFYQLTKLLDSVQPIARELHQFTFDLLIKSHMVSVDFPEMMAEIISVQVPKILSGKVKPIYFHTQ
Experimental: The specific conditions, reagents, etc. used to derive the data from Table 2 are as follows:
Animal Species. Adult male rat (Charles River CD).
Pretreatment. Castration 17-24 hour prior to sacrifice.
Tissue. Ventral prostate. Amount of tissue: 0.4 g/rat. Several ventral prostate glands pooled for each assay.
Buffer. 0.05M Tris HCl, 0.05M Trisbase; 1 mM EDTA; 0.15 mM Dithiothreitol.
Homogenization. Three five-second bursts with 30 second cooling periods between bursts using Brinkman Polytron Pt. 10 (3.5 setting).
Temperature. 0°-4° C. all steps.
Centrifugation. 45,000 rpm for 1 hr, 50 Ti rotor, Beckman L8-80 ultracentrifuge.
Radiolabel. 1,2-^3 H-Dihydrotesterone-25,00 cpm/0.1 ml.
Amounts of Addition. 0.1 ml cytosol, 0.1 ml ^3 H-dihydrotestosterone, 0.1 ml test compound, 0.3 ml buffer.
Incubation. 16-18 hours at 0°-4° C.
Concentrations. 1×10^-10 M to 1×10^-5 (7 concentrations).
Method. Charcoal adsorption method used to remove unbound radioactivity. Five-tenths ml dextran-coated charcoal (0.5% Norit A and 0.05% dextran T-70) added to all except total radioactivity tubes (0.5 ml buffer added), tubes vortexed […], allowed to sit 10 min and centrifuged 10 min at 2000 rpm in Beckman TJ-6 centrifuge at 0°-4° C.

[2] = system: uterine endometrium of estrone-primed immature rabbits; assay: Clauberg assay (progestational activity, McPhail); assay type: in vivo, rabbit (New Zealand White); conditions: for McPhail Index (0-4) (X ± S.D.): 0 none, 4 maximal
cycling rats = assay: Blockade of ovulation in rats; assay type: in vivo, rat (Charles River CD); conditions: for No. Rats Ovulated (of rats treated) / No. of Oviductal Eggs in Rats that Ovulated (X ± S.D.): single sc
Source text: The treated rats were sacrificed on the morning of expected estrus and eggs, if present, were flushed from the oviducts and counted. | *This assay employs cycling Charles River CD rats. For methods refer to | Beattie, C. W. and A. Corbin, Endocrinology 97, 885, 1975. […] | diestrus. Rats were sacrificed 43 to 44 hr later on the morning of | expected estrus. Eggs, if present, were flushed from oviducts and counted | under a stereomicroscope.

estrous cycle of rats = assay: Suppression of estrous cycles in rats; assay type: in vivo, rat; conditions: sc, 10 days
Experimental: A control group was treated in parallel with 0.2 ml peanut oil per day. Treatment commenced at metestrus and vaginal smears were taken each morning during the 10-day treatment period and for 16 to 18 days thereafter.

SMILES: C#C[C@]1(C(C)=O)CC[C@H]2[C@@H]3CCC4=CC(=O)CC[C@]4(C)[C@H]3CC[C@@]21C [17α-Ethynylprogesterone, 17α-ethynylprogesterone]
- RBA ([1]; 16-18 hours at 0°-4° C., 5α-dihydrotestosterone = 100): 0.09%
- androgen receptor binding affinity / androgenicity, in words ([1]; male rat androgenic receptors): extremely low binding affinity for male rat androgenic receptors
- progestational potency relative to subcutaneous progesterone, in words ([2]; compound given orally, progesterone sc): progestational activity equivalent to subcutaneous progesterone
- progestational potency relative to progesterone (sc) ([2]; compound given sc): 13 times
- Uterine Weight (X ± S.D.) ([2]; oral, 10 μg/rabbit daily): 0.94 ± 0.09 g
- McPhail Index (0-4) (X ± S.D.) ([2]; oral, 10 μg/rabbit daily): 0.08 ± 0.11
- Uterine Weight (X ± S.D.) ([2]; oral, 20 μg/rabbit daily): 0.98 ± 0.18 g
- McPhail Index (0-4) (X ± S.D.) ([2]; oral, 20 μg/rabbit daily): 0.04 ± 0.06
- Uterine Weight (X ± S.D.) ([2]; oral, 50 μg/rabbit daily): 0.86 ± 0.02 g
- McPhail Index (0-4) (X ± S.D.) ([2]; oral, 50 μg/rabbit daily): 0.00 ± 0.00
- Uterine Weight (X ± S.D.) ([2]; oral, 100 μg/rabbit daily): 1.79 ± 0.63 g and 1.13 ± 0.24 g
- progestational response, in words ([2]; oral, 100 μg/rabbit/day): inactive; also recorded: near the oral threshold dose
- Uterine Weight (X ± S.D.) ([2]; oral, 200 μg/rabbit daily): 1.67 ± 0.33 g
- McPhail Index (0-4) (X ± S.D.) ([2]; oral, 200 μg/rabbit daily): 1.40 ± 1.50
- Uterine Weight (X ± S.D.) ([2]; oral, 400 μg/rabbit daily): 1.70 ± 0.50 g
- McPhail Index (0-4) (X ± S.D.) ([2]; oral, 400 μg/rabbit daily): 1.80 ± 1.70
- progestational response, in words ([2]; oral, 200 and 400 μg/rabbit/day): partial progestational responses
- Uterine Weight (X ± S.D.) ([2]; sc, 2.5 μg/rabbit daily): 0.90 ± 0.06 g
- McPhail Index (0-4) (X ± S.D.) ([2]; sc, 2.5 μg/rabbit daily): 0.17 ± 0.23
- progestational response, in words ([2]; sc, 2.5 μg/rabbit/day): inactive
- Uterine Weight (X ± S.D.) ([2]; sc, 5 μg/rabbit daily): 1.63 ± 0.45 g
- McPhail Index (0-4) (X ± S.D.) ([2]; sc, 5 μg/rabbit daily): 1.50 ± 0.54
- progestational response, in words ([2]; sc, 5 μg/rabbit/day): partial progestational response
- Uterine Weight (X ± S.D.) ([2]; sc, 10 μg/rabbit daily): 3.23 ± 0.83 g
- McPhail Index (0-4) (X ± S.D.) ([2]; sc, 10 μg/rabbit daily): 3.83 ± 0.12
- Uterine Weight (X ± S.D.) ([2]; sc, 20 μg/rabbit daily): 4.41 ± 0.33 g
- McPhail Index (0-4) (X ± S.D.) ([2]; sc, 20 μg/rabbit daily): 4.00 ± 0.00
- Uterine Weight (X ± S.D.) ([2]; sc, 50 μg/rabbit daily): 5.54 ± 0.18 g
- McPhail Index (0-4) (X ± S.D.) ([2]; sc, 50 μg/rabbit daily): 4.0 ± 0.00
- Uterine Weight (X ± S.D.) ([2]; sc, 100 μg/rabbit daily): 4.19 ± 0.22 g
- McPhail Index (0-4) (X ± S.D.) ([2]; sc, 100 μg/rabbit daily): 4.0 ± 0.00
- Uterine Weight (X ± S.D.) ([2]; sc, 200 μg/rabbit daily): 4.99 ± 0.89 g
- McPhail Index (0-4) (X ± S.D.) ([2]; sc, 200 μg/rabbit daily): 4.0 ± 0.00
- Uterine Weight (X ± S.D.) ([2]; sc, 400 μg/rabbit daily): 5.90 ± 1.75 g
- McPhail Index (0-4) (X ± S.D.) ([2]; sc, 400 μg/rabbit daily): 4.0 ± 0.00
- progestational response, in words ([2]; sc, 10 and 20 μg/rabbit/day): maximal progestational responses
- progestational response, in words ([2]; sc, 50, 100, 200 and 400 μg/rabbit/day): full progestational responses
- ovulation, in words (cycling rats; 500 μg progesterone, 100, 250 or 500 μg 17α-ethynylprogesterone): ovulation was blocked in most rats
- ovulation, in words (cycling rats; 100 or 250 μg progesterone, 50 μg 17α-ethynylprogesterone): ovulated in a normal fashion
- potency in blocking ovulation relative to (±)-norgestrel, in words (cycling rats; comparison with literature): equipotent with (±)-norgestrel
- potency in blocking ovulation relative to progesterone, in words (cycling rats; sc): about five times as potent as progesterone
- No. Rats Ovulated (of rats treated) (cycling rats; 50 μg/rat): 4/5
- No. of Oviductal Eggs in Rats that Ovulated (X ± S.D.) (cycling rats; 50 μg/rat): 10.5 ± 2.1
- No. Rats Ovulated (of rats treated) (cycling rats; 100 μg/rat): 1/5
- No. of Oviductal Eggs in Rats that Ovulated (X ± S.D.) (cycling rats; 100 μg/rat): 3.0
- No. Rats Ovulated (of rats treated) (cycling rats; 250 μg/rat): 1/5
- No. of Oviductal Eggs in Rats that Ovulated (X ± S.D.) (cycling rats; 250 μg/rat): 6.0
- No. Rats Ovulated (of rats treated) (cycling rats; 500 μg/rat): 0/5
- No. of Oviductal Eggs in Rats that Ovulated (X ± S.D.) (cycling rats; 500 μg/rat): 0.0
- estrous cycle during treatment, in words (estrous cycle of rats; 50 μg/day): continued regular four-day cycles during treatment
- estrous cycle during treatment, in words (estrous cycle of rats; 100 μg/day): estrous cycles were disrupted; also recorded: some degree of follicular development occurred, but that ovulation was inhibited during treatment
- estrous cycle during treatment, in words (estrous cycle of rats; 250 μg/day): estrous cycles were disrupted
- estrous cycle during treatment, in words (estrous cycle of rats; 500 μg/day): estrous cycles were disrupted; also recorded: follicular development and ovulation were effectively suppressed
